Assay results reported in ChEMBL document CHEMBL5252585, “Structure optimization and discovery of novel compound for the treatment of insertion mutations within exon 20 of EGFR and HER2” (Bioorg Med Chem, 2023).
The source made the active and inactive calls. No cut-off for these calls is given here.

Key:
[1] = target: Voltage-gated inwardly rectifying potassium channel KCNH2 (Homo sapiens, UniProt Q12809); test: Binding affinity to human ERG; type: toxicity
[2] = Toxicity in BALB/c mouse harboring HER2-A775-G776 ins YVMA mutant implanted with mouse BaF3 cells assessed as change in body weight at 10 to 20 mg/kg, po administered once daily for 13 to 14 days; type: organism-based; conditions: in vivo, dose lower 10 mg/kg, time lower 13 day, dose upper 20 mg/kg, time upper 14 day
[3] = Inhibition of EGFR L858R/T790M double mutant (unknown origin); set-up: species or system Homo sapiens
[4] = target: Receptor tyrosine-protein kinase erbB-2 (Homo sapiens, UniProt P04626); conditions: dose 500.0 nM
Receptor tyrosine-protein kinase erbB-2, sequence (P04626 whole entry): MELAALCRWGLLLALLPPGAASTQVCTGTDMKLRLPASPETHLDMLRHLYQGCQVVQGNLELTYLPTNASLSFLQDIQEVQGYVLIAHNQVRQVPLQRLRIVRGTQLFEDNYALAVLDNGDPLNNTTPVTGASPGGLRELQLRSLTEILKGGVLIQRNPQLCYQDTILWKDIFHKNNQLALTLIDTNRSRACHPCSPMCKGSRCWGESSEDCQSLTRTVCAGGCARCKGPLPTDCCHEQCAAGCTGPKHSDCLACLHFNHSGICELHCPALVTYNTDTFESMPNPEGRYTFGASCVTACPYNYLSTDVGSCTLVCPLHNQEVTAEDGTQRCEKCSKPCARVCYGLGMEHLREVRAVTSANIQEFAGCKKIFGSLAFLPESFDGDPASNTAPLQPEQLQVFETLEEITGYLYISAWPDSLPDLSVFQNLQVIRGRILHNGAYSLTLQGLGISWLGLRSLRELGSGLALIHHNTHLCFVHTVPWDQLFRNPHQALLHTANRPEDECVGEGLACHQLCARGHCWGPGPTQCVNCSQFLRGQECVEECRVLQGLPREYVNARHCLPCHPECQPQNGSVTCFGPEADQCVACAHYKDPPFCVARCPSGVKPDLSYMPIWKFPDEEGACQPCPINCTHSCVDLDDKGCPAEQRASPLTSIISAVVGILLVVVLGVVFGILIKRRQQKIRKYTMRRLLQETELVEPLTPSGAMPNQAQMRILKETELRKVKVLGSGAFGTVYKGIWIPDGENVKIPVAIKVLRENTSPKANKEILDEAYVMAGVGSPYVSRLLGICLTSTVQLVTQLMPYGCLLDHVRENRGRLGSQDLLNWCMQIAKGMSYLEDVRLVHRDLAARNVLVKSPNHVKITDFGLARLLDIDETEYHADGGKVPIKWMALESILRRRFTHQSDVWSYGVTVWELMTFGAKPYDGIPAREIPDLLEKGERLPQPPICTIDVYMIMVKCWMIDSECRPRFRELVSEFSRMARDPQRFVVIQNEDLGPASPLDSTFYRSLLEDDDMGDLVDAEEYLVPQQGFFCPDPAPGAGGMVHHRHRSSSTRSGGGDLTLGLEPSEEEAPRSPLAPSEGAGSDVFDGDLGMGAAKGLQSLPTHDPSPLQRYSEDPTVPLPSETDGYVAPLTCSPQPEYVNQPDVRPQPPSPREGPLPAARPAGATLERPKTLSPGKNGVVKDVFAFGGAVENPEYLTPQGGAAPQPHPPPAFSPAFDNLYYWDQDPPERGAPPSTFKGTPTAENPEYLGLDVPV
Description: Inhibition of HER2 (unknown origin) at 500 nM relative to control

[5] = target: Protein-tyrosine kinase 6 (Homo sapiens) (UniProt Q13882); test: Inhibition of BRK (unknown origin) at 500 nM relative to control
Protein-tyrosine kinase 6 (Homo sapiens), sequence (Q13882 whole entry, looked up): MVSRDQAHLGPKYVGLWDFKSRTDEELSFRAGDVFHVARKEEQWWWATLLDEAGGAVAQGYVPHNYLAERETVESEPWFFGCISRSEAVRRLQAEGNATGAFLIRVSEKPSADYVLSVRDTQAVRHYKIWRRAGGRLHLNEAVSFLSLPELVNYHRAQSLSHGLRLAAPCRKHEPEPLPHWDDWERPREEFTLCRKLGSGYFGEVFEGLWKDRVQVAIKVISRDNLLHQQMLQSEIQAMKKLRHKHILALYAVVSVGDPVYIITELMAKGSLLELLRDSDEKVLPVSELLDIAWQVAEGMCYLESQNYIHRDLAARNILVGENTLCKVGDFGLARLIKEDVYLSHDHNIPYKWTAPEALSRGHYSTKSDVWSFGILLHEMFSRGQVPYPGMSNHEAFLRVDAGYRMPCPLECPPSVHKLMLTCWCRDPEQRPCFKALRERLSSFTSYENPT

BaF3 [6] = test: Inhibition of HER2-A775-G776 ins YVMA mutant in mouse BaF3 cells assessed as reduction in HER2 phosphorylation incubated for 24 hrs by Western blot analysis; type: cell-based; conditions: dose 1-100 nM
BaF3 [7] = test: Inhibition of EGFR D770-N771 ins NPG mutant in mouse BaF3 cells assessed as reduction in EGFR phosphorylation at less than 1 nM incubated for 24 hrs by Western blot analysis; type: cell-based
[8] = target: Receptor tyrosine-protein kinase erbB-4 (Homo sapiens) (UniProt Q15303); conditions: dose 500.0 nM
Receptor tyrosine-protein kinase erbB-4 (Homo sapiens), sequence (Q15303 whole entry): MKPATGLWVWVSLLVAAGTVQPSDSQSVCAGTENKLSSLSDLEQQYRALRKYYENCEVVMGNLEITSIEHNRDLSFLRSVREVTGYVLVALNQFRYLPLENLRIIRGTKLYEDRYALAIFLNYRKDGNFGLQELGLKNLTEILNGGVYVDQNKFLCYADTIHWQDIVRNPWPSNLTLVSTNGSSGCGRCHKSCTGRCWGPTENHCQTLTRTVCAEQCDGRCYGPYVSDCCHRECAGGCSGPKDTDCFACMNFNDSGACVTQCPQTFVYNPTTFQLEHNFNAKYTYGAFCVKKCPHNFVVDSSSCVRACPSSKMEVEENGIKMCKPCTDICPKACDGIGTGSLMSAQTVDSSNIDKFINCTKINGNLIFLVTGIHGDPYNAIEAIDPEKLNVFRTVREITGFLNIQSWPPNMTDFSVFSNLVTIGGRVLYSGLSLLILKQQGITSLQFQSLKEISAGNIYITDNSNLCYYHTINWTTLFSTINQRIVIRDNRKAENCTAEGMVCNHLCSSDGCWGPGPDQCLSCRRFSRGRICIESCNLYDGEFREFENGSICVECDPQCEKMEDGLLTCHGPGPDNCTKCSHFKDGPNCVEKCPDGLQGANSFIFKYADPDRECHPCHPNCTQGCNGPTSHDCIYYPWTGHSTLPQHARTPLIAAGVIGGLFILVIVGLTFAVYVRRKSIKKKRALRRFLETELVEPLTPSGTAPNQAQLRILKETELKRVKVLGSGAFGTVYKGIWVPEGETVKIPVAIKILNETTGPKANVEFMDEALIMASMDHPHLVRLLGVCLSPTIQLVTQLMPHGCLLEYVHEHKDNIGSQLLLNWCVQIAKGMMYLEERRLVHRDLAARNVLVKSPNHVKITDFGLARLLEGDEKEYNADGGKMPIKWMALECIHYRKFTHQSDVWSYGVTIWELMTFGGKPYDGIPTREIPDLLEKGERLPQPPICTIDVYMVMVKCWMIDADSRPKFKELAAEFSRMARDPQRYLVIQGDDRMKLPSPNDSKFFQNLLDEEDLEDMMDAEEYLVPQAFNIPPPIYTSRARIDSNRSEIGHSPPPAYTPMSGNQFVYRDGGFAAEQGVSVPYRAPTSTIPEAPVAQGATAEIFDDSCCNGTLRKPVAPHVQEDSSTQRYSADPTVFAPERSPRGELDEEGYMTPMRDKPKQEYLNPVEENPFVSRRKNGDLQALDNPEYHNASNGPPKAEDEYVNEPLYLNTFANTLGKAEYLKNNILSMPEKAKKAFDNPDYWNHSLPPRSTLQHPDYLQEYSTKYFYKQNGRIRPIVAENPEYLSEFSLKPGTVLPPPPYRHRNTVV
Description: Inhibition of HER4 (unknown origin) at 500 nM relative to control

BaF3 [9] = test: Antitumor activity against mouse BaF3 cells implanted in BALB/c mouse harboring EGFR D770-N771 ins NPG mutant assessed as tumor growth inhibition at 10 mg/kg, po administered once daily for 13 to 14 days; type: functional; conditions: time 13-14 day, read-out: TGI
BaF3 [10] = test: Antiproliferative activity against mouse BAF3 cells harboring FL-EGFR A763-Y764 ins FQEA mutant after 72 hrs by celltiter-Glo luminescence assay; type: functional, cell-based; conditions: BaF3, 72 h
[11] = Mean residence time in Sprague-Dawley rat at 10 mg/kg, iv measured upto 8 hrs by LC-MS/MS analysis; type: ADME, organism-based; conditions: in vivo
[12] = Cmax in Sprague-Dawley rat at 10 mg/kg, po measured upto 8 hrs by LC-MS/MS analysis; type: ADME, organism-based; set-up: dose 10 mg/kg, time < 8 hrs, route po; conditions: in vivo
[13] = target: T1, Tyrosine-protein kinase Tec (Homo sapiens) (UniProt P42680); test: Inhibition of TEC (unknown origin) at 500 nM relative to control
T1 sequence (whole entry): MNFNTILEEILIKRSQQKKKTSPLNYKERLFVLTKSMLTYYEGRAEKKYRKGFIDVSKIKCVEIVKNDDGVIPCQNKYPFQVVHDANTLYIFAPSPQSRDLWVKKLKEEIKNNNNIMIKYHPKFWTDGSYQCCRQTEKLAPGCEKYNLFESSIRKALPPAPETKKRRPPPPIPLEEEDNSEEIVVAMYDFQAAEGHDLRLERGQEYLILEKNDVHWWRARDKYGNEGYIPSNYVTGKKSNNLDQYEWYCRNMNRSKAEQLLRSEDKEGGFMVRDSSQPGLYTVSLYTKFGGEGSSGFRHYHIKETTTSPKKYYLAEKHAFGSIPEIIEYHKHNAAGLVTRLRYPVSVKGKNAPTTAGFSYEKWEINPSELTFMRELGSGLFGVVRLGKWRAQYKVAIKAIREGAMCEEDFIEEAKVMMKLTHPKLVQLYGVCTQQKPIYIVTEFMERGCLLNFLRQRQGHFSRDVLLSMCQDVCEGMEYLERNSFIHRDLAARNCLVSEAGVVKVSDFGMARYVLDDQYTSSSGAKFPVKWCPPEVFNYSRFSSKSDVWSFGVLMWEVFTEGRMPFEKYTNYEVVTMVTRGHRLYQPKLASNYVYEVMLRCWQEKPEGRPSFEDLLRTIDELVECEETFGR

[14] = Clearance in Sprague-Dawley rat at 10 mg/kg, po measured upto 8 hrs by LC-MS/MS analysis; type: ADME, organism-based; conditions: in vivo
[15] = AUC(0 to t) in Sprague-Dawley rat at 10 mg/kg, iv measured upto 8 hrs by LC-MS/MS analysis; type: ADME, organism-based; set-up: dose 10 mg/kg, time < 8 hrs, route iv; conditions: in vivo
BaF3 [16] = test: Antiproliferative activity against mouse BAF3 cells harboring HER2-A775-G776 ins YVMA mutant after 72 hrs by celltiter-Glo luminescence assay; type: functional, cell-based; conditions: BaF3, 72 h
[17] = Mean residence time in Sprague-Dawley rat at 10 mg/kg, po measured upto 8 hrs by LC-MS/MS analysis; type: ADME, organism-based; conditions: in vivo
[18] = Inhibition of HER2-A775-G776 ins YVMA mutant (unknown origin); set-up: species or system Homo sapiens
[19] = target: Tyrosine-protein kinase BTK (Homo sapiens) (UniProt Q06187); test: Inhibition of BTK (unknown origin) at 500 nM relative to control
Tyrosine-protein kinase BTK (Homo sapiens), sequence (Q06187 whole entry): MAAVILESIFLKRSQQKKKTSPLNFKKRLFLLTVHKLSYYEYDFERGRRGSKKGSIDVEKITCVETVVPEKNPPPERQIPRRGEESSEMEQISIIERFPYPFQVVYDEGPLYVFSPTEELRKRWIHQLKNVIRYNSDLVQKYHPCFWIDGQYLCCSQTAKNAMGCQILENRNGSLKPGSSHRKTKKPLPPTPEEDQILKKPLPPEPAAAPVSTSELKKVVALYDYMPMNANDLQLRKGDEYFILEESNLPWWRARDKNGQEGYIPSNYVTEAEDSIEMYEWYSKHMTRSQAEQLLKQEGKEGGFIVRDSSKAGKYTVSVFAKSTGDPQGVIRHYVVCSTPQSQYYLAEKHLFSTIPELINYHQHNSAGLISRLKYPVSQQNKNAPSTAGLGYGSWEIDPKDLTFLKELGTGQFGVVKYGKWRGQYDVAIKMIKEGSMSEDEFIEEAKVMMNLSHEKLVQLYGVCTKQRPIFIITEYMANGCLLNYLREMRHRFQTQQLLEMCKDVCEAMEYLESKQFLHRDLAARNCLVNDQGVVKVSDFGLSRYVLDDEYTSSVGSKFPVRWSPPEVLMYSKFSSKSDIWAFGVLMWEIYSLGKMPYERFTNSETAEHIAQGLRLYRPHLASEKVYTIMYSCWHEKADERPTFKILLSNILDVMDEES

BaF3 [20] = test: Antiproliferative activity against mouse BAF3 cells harboring FL-EGFR D770-N771 ins NPG mutant after 72 hrs by celltiter-Glo luminescence assay; type: functional, cell-based; conditions: BaF3, 72 h
[21] = Clearance in Sprague-Dawley rat at 10 mg/kg, iv measured upto 8 hrs by LC-MS/MS analysis; type: ADME, organism-based; conditions: in vivo
[22] = Half life in Sprague-Dawley rat at 10 mg/kg, iv measured upto 8 hrs by LC-MS/MS analysis; type: ADME, organism-based; conditions: in vivo
BaF3 [23] = test: Inhibition of EGFR D770-N771 ins NPG mutant in mouse BaF3 cells assessed as reduction in EGFR phosphorylation incubated for 24 hrs by Western blot analysis; type: cell-based; conditions: dose 1-100 nM
BaF3 [24] = test: Antiproliferative activity against mouse BAF3 cells harboring HER2-P780-Y781 ins GSP mutant after 72 hrs by celltiter-Glo luminescence assay; type: functional, cell-based; conditions: BaF3, 72 h
BaF3 [25] = test: Antitumor activity against mouse BaF3 cells implanted in BALB/c mouse harboring HER2-A775-G776 ins YVMA mutant assessed as tumor growth inhibition at 20 mg/kg, po administered once daily for 13 to 14 days; type: functional; conditions: time 13-14 day, read-out: TGI
BaF3 [26] = test: In vivo inhibition of HER2-A775-G776 ins YVMA mutant in BALB/c mouse implanted with mouse BaF3 cells assessed as reduction in HER2 phosphorylation at 10 to 20 mg/kg, po administered once daily for 13 to 14 days by Western blot analysis; type: functional, organism-based; conditions: dose 10-20 mg/kg, time 13-14 day
[27] = AUC(0 to t) in Sprague-Dawley rat at 10 mg/kg, po measured upto 8 hrs by LC-MS/MS analysis; type: ADME, organism-based; set-up: dose 10 mg/kg, time < 8 hrs, route po; conditions: in vivo
BaF3 [28] = test: Inhibition of HER2-A775-G776 ins YVMA mutant in mouse BaF3 cells assessed as reduction in HER2 phosphorylation at less than 1 nM incubated for 24 hrs by Western blot analysis; type: cell-based
[29] = Toxicity in BALB/c mouse harboring EGFR D770-N771 ins NPG mutant implanted with mouse BaF3 cells assessed as change in body weight at 10 to 20 mg/kg, po administered once daily for 13 to 14 days; type: organism-based; conditions: in vivo, dose lower 10 mg/kg, time lower 13 day, dose upper 20 mg/kg, time upper 14 day

Voltage-gated inwardly rectifying potassium channel KCNH2, sequence (Q12809 whole entry): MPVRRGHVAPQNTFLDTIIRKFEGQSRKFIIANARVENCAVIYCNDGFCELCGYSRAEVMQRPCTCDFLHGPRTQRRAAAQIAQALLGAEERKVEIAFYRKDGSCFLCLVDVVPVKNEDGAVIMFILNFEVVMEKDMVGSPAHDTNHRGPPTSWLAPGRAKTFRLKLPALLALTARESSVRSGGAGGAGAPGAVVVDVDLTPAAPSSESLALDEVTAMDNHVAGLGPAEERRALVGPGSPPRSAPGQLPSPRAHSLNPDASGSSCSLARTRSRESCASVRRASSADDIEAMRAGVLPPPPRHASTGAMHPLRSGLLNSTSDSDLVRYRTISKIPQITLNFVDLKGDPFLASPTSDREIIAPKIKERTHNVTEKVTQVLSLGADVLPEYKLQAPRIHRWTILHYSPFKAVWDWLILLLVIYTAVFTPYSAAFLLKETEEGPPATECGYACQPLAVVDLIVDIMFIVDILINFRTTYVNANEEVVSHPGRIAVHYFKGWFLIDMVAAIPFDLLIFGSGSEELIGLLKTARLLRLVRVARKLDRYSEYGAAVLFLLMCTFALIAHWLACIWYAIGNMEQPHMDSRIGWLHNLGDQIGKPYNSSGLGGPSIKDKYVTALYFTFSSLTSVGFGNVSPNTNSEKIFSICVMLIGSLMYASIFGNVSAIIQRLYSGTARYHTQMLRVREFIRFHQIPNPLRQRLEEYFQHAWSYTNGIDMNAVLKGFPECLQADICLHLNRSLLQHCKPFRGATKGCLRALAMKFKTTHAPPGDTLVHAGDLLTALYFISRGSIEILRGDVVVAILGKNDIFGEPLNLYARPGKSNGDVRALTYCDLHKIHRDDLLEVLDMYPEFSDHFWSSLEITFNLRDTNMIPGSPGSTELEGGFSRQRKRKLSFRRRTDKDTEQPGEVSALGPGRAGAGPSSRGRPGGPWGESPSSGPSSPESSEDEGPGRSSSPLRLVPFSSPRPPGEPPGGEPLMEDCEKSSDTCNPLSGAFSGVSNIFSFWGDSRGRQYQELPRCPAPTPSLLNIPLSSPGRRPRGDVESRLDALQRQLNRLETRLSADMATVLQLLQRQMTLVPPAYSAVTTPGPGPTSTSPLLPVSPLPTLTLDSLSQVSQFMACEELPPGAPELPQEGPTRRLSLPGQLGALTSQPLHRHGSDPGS

## C=CC(=O)N1CCC(Oc2cc3c(Nc4cccc(Cl)c4F)ncnc3cc2O[C@H]2CCOC2)CC1
[1]
  IC50: > 15000 nM
[2]
  Activity: Non-Toxic
[3]
  IC50: 1.07 nM
[4]
  inhibition: 100%
[5]
  inhibition: > 20%
BaF3 [6]
  inhibition: Dose-Dependent Effect
BaF3 [7]
  inhibition: Active
[8]
  inhibition: 100%
BaF3 [9]
  inhibition in vivo at 10 mg/kg: 67%
BaF3 [10]
  IC50: 0.29 nM
[11]
  MRT: 1.89 h
[12]
  Cmax: 1690 ng/mL
[13]
  inhibition: > 20%
[14]
  CL/F: 2.96 mL/min
[15]
  AUC(0-t) at 8 h: 13900 ng·h/mL
BaF3 [16]
  IC50: 0.95 nM
[17]
  MRT: 3.58 h
[18]
  IC50: 0.92 nM
[19]
  inhibition: > 20%
BaF3 [20]
  IC50: 0.79 nM
[21]
  clearance: 2.32 mL/min
[22]
  half-life: 0.89 h
BaF3 [23]
  inhibition: Dose-Dependent Effect
BaF3 [24]
  IC50: 0.62 nM
BaF3 [25]
  inhibition in vivo at 20 mg/kg: 90%
BaF3 [26]
  inhibition: Active
[27]
  AUC(0-t) at 8 h: 9500 ng·h/mL
BaF3 [28]
  inhibition: Active
[29]
  Activity: Non-Toxic
